Data reported in patent EP2444091B1, “USE OF T[…] MELIA AZEDARACH EXTRACTS FOR PREVENTING OR TREATING DEMENTIA” (Ildong Pharm Co., Ltd., priority 2009, dated 2010).

Tests used:
[1] = test system: APPα and APPβ (APP metabolites); assay: APPα and APPβ production in culture medium by western blot, BA-3 cell line overexpressing BACE1 and APP695; type: cell-based
Experimental: A HEK293-derived BA-3 cell line overexpressing BACE1(β-secretase) and APP695 was plated on 6-well plate by using DMEM (Dulbecco's Modified Eagle's Medium) including 10% fetal bovin serum (FBS) in such a manner that it occupied 80% or more of the area in each well, and then was cultured for 1 day. After the removal of the culture medium, free DMEM (not including fetal bovine serum) was heated to 37°C, and added in an amount of 0.9ml to each well. Then, toosendanin or a toosendan fructus fraction extracted with each solvent was diluted to an appropriate concentration by 0.1ml free DMEM, and the cell line was treated with these materials, and cultured for 24 hours. 0.2ml of the culture medium treated with each test sample was collected, and subjected to electrophoresis by 8% SDS-PAGE (polyacrylamide gel electrophoresis). Then, AB1560(monoclonal) and Rb53(polyclonal) antibodies (antibodies against APPα and APPβ) were used to measure the amounts of APPα and APPβ within the culture medium through western blotting.
Extracts (ethyl alcohol, methanol, ethyl acetate, and 90% methanol) of meliae cortex (bark of chinaberry) were obtained under the same organic solvent extraction condition of toosendan fructus. Then, their effects on APPβ production reduction were tested.
On the toosendan fructus ethyl alcohol extract obtained from Example 9-1, an APPβ production reducing effect, an APPα production promoting effect, and an Aβ production inhibiting effect were measured in the same manner as described in Example 5.

Aβ40 = Aβ40 quantification in rat serum before/after oral administration; type: in vivo; settings: 5mg/kg oral, blood after two hours
Experimental: Before administration of toosendanin, blood was secured. Then, toosendanin suspended in 20% ethyl alcohol was orally administered in doses of 5 and 50mg/kg. After two hours, the blood was collected, and the concentration change of Aβ within the blood before/after administration was measured. The collected blood was centrifuged (16,000×g, 20 minutes, 4°C), and Aβ40 within the collected serum was quantified by using an Aβ40 quantitative analysis kit (Mouse/Rat Amyloidβ (1-40) High Specific Assay Kit, IBL, Japan).

[2] = concentration of 12.5nM or less

## CC(=O)O[C@@H]1C[C@H](O)[C@@]23CO[C@@H](O)[C@]1(C)[C@@H]2C[C@@H](O)[C@]1(C)[C@@H]3C(=O)[C@H](OC(C)=O)[C@@]2(C)[C@H](c3ccoc3)C[C@H]3O[C@]321 [toosendanin]
[1]; at 0.8uM, 24 hours
  production of APPα with respect to a non-treated group: 141.5%
  production of APPβ with respect to a non-treated group: 17.8%
[1]; [2]
  production of APPα: promoting the production of APPα
  production of APPβ: inhibited the production of APPβ
Aβ40
  inhibition of Aβ40 in serum: ≥ 85%
